From patent US20080045494A1, “Pyridine Analogues VI” (ASTRAZENECA AB, priority 2006, published 2008) come the findings set out here.

For the experiment, the target named is T1, P2Y12 receptor (Homo sapiens, UniProt Q9H244).
T1 construct: expressed in transfected cells; host or cells: CHO cells (membranes)
Briefly: Functional inhibition of 2-Me-S-ADP induced P2Y12 signalling (35S-GTPγS, membranes from P2Y12 transfected CHO-cells). The format is biochemical. The note with it: EC80 concentration of agonist 2-methyl-thio-adenosine diphosphate; 30° C., 45 min. How it is done: Functional inhibition of the P2Y12 receptor can be measured by in vitro assays using cell membranes from P2Y12 transfected CHO-cells, the methodology is indicated below.
Functional inhibition of 2-Me—S-ADP induced P2Y12 signalling: 5 μg of membranes were diluted in 200 μl of 200 mM NaCl, 1 mM MgCl2, 50 mM HEPES (pH 7.4), 0.01% BSA, 30 μg/ml saponin and 10 μM GDP. To this was added an EC80 concentration of agonist (2-methyl-thio-adenosine diphosphate), the required concentration of test compound and 0.1 μCi ^35S-GTPγS. The reaction was allowed to proceed at 30° C. for 45 min. Samples were then transferred on to GF/B filters using a cell harvester and washed with wash buffer (50 mM Tris (pH 7.4), 5 mM MgCl2, 50 mM NaCl). Filters were then covered with scintillant and counted for the amount of ^35S-GTPγS retained by the filter. Maximum activity was that determined in the presence of the agonist and minimum activity in the absence of the agonist following subtraction of the value determined for non-specific activity. The effect of compounds at various concentrations was plotted according to the equation: […]
y=A+((B−A)/(1+((C/x)̂D)))
A is the bottom plateau of the curve i.e. the final minimum y value
B is the top of the plateau of the curve i.e. the final maximum y value
C is the x value at the middle of the curve. This represents the log EC50 value when A+B=100 […]

T1 sequence (Q9H244 whole entry): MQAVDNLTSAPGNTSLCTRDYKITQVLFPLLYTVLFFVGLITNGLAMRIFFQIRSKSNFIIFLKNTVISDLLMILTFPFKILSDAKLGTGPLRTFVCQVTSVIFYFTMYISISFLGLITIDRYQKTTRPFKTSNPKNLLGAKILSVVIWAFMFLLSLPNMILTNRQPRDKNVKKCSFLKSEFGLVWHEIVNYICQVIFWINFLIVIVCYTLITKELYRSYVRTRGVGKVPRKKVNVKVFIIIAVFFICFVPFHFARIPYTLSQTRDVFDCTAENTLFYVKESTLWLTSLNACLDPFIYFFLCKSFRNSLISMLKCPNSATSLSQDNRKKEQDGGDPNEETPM

With `CCOC(=O)c1cc(C#N)c(NCC(=O)NS(=O)(=O)CCc2ccccc2)nc1C(F)(F)F` [Example 6, Ethyl 5-cyano-6-[(2-oxo-2-{[(2-phenylethyl)sulfonyl]amino}ethyl)amino]-2-(trifluoromethyl)nicotinate], the IC50 was 240 nM. In the case of “Ethyl 6-{[3-({[(5-chloro-2-thienyl)sulfonyl]amino}carbonyl)cyclopentyl]amino}-5-cyano-1-(trifluoromethyl)nicotinate [Example 3]” it was 810 nM.

As a reminder, the IC50 is the point on the concentration scale where inhibition reaches its midpoint. High values mean weaker potency, low ones greater potency.
